Laboratory results from patent US9428514B2, “Bromodomain inhibitors” (AbbVie Inc., priority 2013, dated 2016).

Tested on: breast cancer cell line MX-1
Test: MX-1 cell line proliferation assay (3-day, Cell Titer Glo)
Assay type: cell-based
Conditions: Homo sapiens, MX1, MX-1 cells, 72 hours, read-out: Cellular proliferation: EC50
Procedure: The impact of compounds of the Examples on cancer cell proliferation was determined using the breast cancer cell line MX-1 (ATCC) in a 3-day proliferation assay. MX-1 cells were maintained in RPMI supplemented with 10% FBS at 37° C. and an atmosphere of 5% CO2. For compound testing, MX-1 cells were plated in 96-well black bottom plates at a density of 5000 cells/well in 90 μL of culture media and incubated at 37° overnight to allow cell adhesion and spreading. Compound dilution series were prepared in DMSO via a 3-fold serial dilution from 3 mM to […]. The DMSO dilution series were then diluted 1:100 in phosphate buffered saline, and 10 μL of the resulted solution were added to the appropriate wells of the MX-1 cell plate. The final compound concentrations in the wells were 3, 1, 0.3, 0.1, 0.03, 0.01, 0.003, 0.001, 0.0003, 0.0001, and 0.00003 μM.
Luminescence readings from the Cell Titer Glo assay were normalized to the DMSO treated cells and analyzed using the GraphPad Prism software with sigmoidal curve fitting to obtain EC50s. The minimum significant ratio (MSR) was determined to evaluate assay reproducibility (Eastwood et al., (2006) J Biomol Screen, 11: 253-261). The overall MSR was determined to be 2.1 and a moving MSR (last six run MSR overtime) has been <2. The EC50 values are reported in Table 1 for the indicated compounds.

| EC50 [nM] | SMILES |
| --- | --- |
| 114 | CCOc1cc(=O)n(C)cc1-c1cc(NC(=O)Cc2cc(F)ccc2Cl)ccc1Oc1ccc(F)cc1F [Example 1, 2-(2-chloro-5-fluorophenyl)-N-[4-(2,4-difluorophenoxy)-3-(4-ethoxy-1-methyl-6-oxo-1,6-dihydropyridin-3-yl)phenyl]acetamide] |
| 279 | CCOc1cc(=O)n(C)cc1-c1cc(NC(=O)Cc2ccc3c(c2)CCCO3)ccc1Oc1ccc(F)cc1F [Example 2, N-[4-(2,4-difluorophenoxy)-3-(4-ethoxy-1-methyl-6-oxo-1,6-dihydropyridin-3-yl)phenyl]-2-(3,4-dihydro-2H-chromen-6-yl)acetamide] |
| 433 | CCOc1cc(=O)n(C)cc1-c1cc(NC(=O)Cc2ccc(Cl)cc2F)ccc1Oc1ccc(F)cc1F [Example 3, 2-(4-chloro-2-fluorophenyl)-N-[4-(2,4-difluorophenoxy)-3-(4-ethoxy-1-methyl-6-oxo-1,6-dihydropyridin-3-yl)phenyl]acetamide] |
| 425 | CCOc1cc(=O)n(C)cc1-c1cc(NC(=O)Cc2cnn(C)c2)ccc1Oc1ccc(F)cc1F [Example 4, N-[4-(2,4-difluorophenoxy)-3-(4-ethoxy-1-methyl-6-oxo-1,6-dihydropyridin-3-yl)phenyl]-2-(1-methyl-1H-pyrazol-4-yl)acetamide] |
| 681 | CCOc1cc(=O)n(C)cc1-c1cc(NC(=O)Cc2ccc(C)nc2)ccc1Oc1ccc(F)cc1F [Example 5, N-[4-(2,4-difluorophenoxy)-3-(4-ethoxy-1-methyl-6-oxo-1,6-dihydropyridin-3-yl)phenyl]-2-(6-methylpyridin-3-yl)acetamide] |
| 356 | CCOc1cc(=O)n(C)cc1-c1cc(NC(=O)Cc2cc(C)n(C)n2)ccc1Oc1ccc(F)cc1F [Example 6, N-[4-(2,4-difluorophenoxy)-3-(4-ethoxy-1-methyl-6-oxo-1,6-dihydropyridin-3-yl)phenyl]-2-(1,5-dimethyl-1H-pyrazol-3-yl)acetamide] |
| 187 | CCOc1cc(=O)n(C)cc1-c1cc(NC(=O)Cc2cnc(C)s2)ccc1Oc1ccc(F)cc1F [Example 7, N-[4-(2,4-difluorophenoxy)-3-(4-ethoxy-1-methyl-6-oxo-1,6-dihydropyridin-3-yl)phenyl]-2-(2-methyl-1,3-thiazol-5-yl)acetamide] |
| > 3000 | CCOc1cc(=O)n(C)cc1-c1cc(NC(=O)Cn2ccc(-c3ccccc3F)n2)ccc1Oc1ccc(F)cc1F [Example 8, N-[4-(2,4-difluorophenoxy)-3-(4-ethoxy-1-methyl-6-oxo-1,6-dihydropyridin-3-yl)phenyl]-2-[3-(2-fluorophenyl)-1H-pyrazol-1-yl]acetamide] |
| 746 | CCOc1cc(=O)n(C)cc1-c1cc(NCCCn2cccn2)ccc1Oc1ccc(F)cc1F [Example 9, 5-[2-(2,4-difluorophenoxy)-5-{[3-(1H-pyrazol-1-yl)propyl]amino}phenyl]-4-ethoxy-1-methylpyridin-2(1H)-one] |
| 1890 | CCOc1cc(=O)n(C)cc1-c1cc(NCc2cn3c(n2)CCC3)ccc1Oc1ccc(F)cc1F [Example 10, 5-{2-(2,4-difluorophenoxy)-5-[(6,7-dihydro-5H-pyrrolo[1,2-a]imidazol-2-ylmethyl)amino]phenyl}-4-ethoxy-1-methylpyridin-2(1H)-one] |
| 884 | CCOc1cc(=O)n(C)cc1-c1cc(NCc2cccc(C)n2)ccc1Oc1ccc(F)cc1F [Example 11, 5-[2-(2,4-difluorophenoxy)-5-{[(6-methylpyridin-2-yl)methyl]amino}phenyl]-4-ethoxy-1-methylpyridin-2(1H)-one] |
| 1020 | CCOc1cc(=O)n(C)cc1-c1cc(NCc2ncccc2C)ccc1Oc1ccc(F)cc1F [Example 12, 5-[2-(2,4-difluorophenoxy)-5-{[(3-methylpyridin-2-yl)methyl]amino}phenyl]-4-ethoxy-1-methylpyridin-2(1H)-one] |
| 1480 | CCOc1cc(=O)n(C)cc1-c1cc(NCc2ccnn2C)ccc1Oc1ccc(F)cc1F [Example 13, 5-[2-(2,4-difluorophenoxy)-5-{[(1-methyl-1H-pyrazol-5-yl)methyl]amino}phenyl]-4-ethoxy-1-methylpyridin-2(1H)-one] |
